# Test system: MC-38 tumors
# Assay: Anti-tumor efficacy of Compound 1 with and without anti-PD-1 in the subcutaneous MC-38 model (Example 2D)
# Type: in vivo, Mus musculus
# Conditions: for MST: endpoint tumor volume 2000 mm^3; for T/C / TGI: day 16
# Protocol: Female C57BL/6 mice were inoculated subcutaneously at right flank with MC-38 cells for tumor development. Five days after tumor inoculation, 48 mice with tumor size ranging from 50-100 mm^3 (average tumor size 72 mm^3) were selected and assigned into six groups using stratified randomization with 8 mice per group based upon their tumor volumes. The treatments were started from the day of randomization (defined as D0), Group 1 was treated with Vehicle (Tween 80:Ethanol:Saline—5:5:90 v/v/v), s.c., qd×14, Group 2 was treated with Anti-PD-1 10 mg/kg i.p. q4d×4, Group 3 was treated with Compound 1 0.3 mg/kg s.c. q.d.×14, Group 4 was treated with Compound 1 0.3 mg/kg s.c. q.d.×14+Anti-PD-1 10 mg/kg i.p. q4d×4, Group 5 was treated with Compound 1 1 mg/kg s.c. q.d.×14, Group 6 was treated with Compound 1 1 mg/kg s.c. q.d.×14+Anti-PD-1 10 mg/kg i.p. q4d×4. The tumor sizes were measured three times per week during the treatment. The entire study was terminated on D37 after start of the treatment.
# Animal Species: Mus musculus; Strain: […]; Age: 6-8 weeks; Sex: female; Body weight (at treatment start): 18-22 g.
# The MC-38 tumor cells were maintained in vitro as a monolayer culture in DMEM medium supplemented with 10% heat inactivated fetal bovine serum and 100 μg/mL penicillin streptomycin at 37° C. in an atmosphere of 5% CO2 in air. The tumor cells were routinely subcultured twice weekly by trypsin-EDTA treatment. The cells growing to a confluency around 70%-80% were harvested and counted for tumor inoculation. The cultured MC-38 were harvested, re-suspended in base medium at a density of 1×10^7 cells/mL with viability >90%. Each mouse was inoculated subcutaneously at the right flank with 1×10^6 cells in 0.1 ml base medium for tumor development.
# The treatments were started on day 5 after tumor inoculation when the tumor size reached 50-100 mm^3 (average tumor size 72 mm^3). Each group consisted of 8 tumor bearing mice.
# The testing article was administrated at the dosing volume indicated to the mice according to the predetermined regimen as shown Table 2D-1. Testing article formulations were prepared according to standard procedures. Details regarding tumor measurements and endpoints, and statistical analysis are provided in EXAMPLE 3.
# Tumor sizes were measured three times a week in two dimensions using a caliper, and the volume expressed in mm^3 using the formula: V=0.5 a×b^2 where a and b are the long and short diameters of the tumor, respectively. The tumor sizes were then used for the calculations of both tumor growth inhibition (TGI) and T/C values.
# TGI is calculated for each group using the formula: […]
# TVTreatment_DayN is the average tumor volume of a treatment group on a given day, TVTreatment_Day0 is the average tumor volume of the treatment group on the first day of treatment, TVVehicle_DayN is the average tumor volume of the vehicle control group on a given day, and TVVehicle_Day0 is the average tumor volume of the vehicle group on the first day of treatment.
# The T/C value (in percent) is an indication of antitumor effectiveness, T/C (%)=RTVTreatment/RTVControl×100% (RTVTreatment: the mean RTV of the treatment group; RTVControl: the mean RTV of the vehicle treated group). RTV (relative tumor volume)=TVDayN/TVDay0. TVDayN and TVDay0 is the tumor volume on day N and Day 0 respectively. T/C (%)≤42% is considered as significant antitumor activity and <10% is considered as highly significant antitumor activity by the National Cancer Institute criteria.
# Animal survival curve: When an individual animal reached to the termination endpoint (TV>2000 mm^3), the mouse was euthanized. The time from treatment initiation to the termination was deemed as its survival time. Survival curve was plotted by Kaplan-Meier method. Median survival time (MST) was calculated for each group. Increase of life span (ILS) was calculated according to the following formula: […]
# ILS (%)>25% is considered as a biologically significant survival benefit. […]
# [1] = Compound 1 0.3 mg/kg qd x 14, s.c.
compound,measurement,setting,value
"CC(=O)N[C@@H](Cc1c[nH]c2ccccc12)C(=O)N[C@@H](CCC(=O)C=[N+]=[N-])C(=O)OC(C)C [Compound 1, Isopropyl (S)-2-((S)-2-acetamido-3-(1H-indol-3-yl)propanamido)-6-diazo-5-oxohexanoate]",ILS,[1],52.6%
same,MST,[1],29 days
same,ILS,"Compound 1 1 mg/kg qd x 14, sc",65.8%
same,MST,"Compound 1 1 mg/kg qd x 14, sc",31.5 days
same,RTV at day 16,"Cpd. 1 0.3 mg/kg qd x 14, s.c.",2.73 ± 0.37
same,RTV at day 16,"Cpd. 1 1 mg/kg qd x 14, sc",0.40 ± 0.11
same,T/C,"Cpd. 1 0.3 mg/kg qd x 14, s.c.",14.06%
same,TGI,"Cpd. 1 0.3 mg/kg qd x 14, s.c.",90.53%
same,T/C,"Cpd. 1 1 mg/kg qd x 14, sc",2.08%
same,TGI,"Cpd. 1 1 mg/kg qd x 14, sc",103.26%

# Reference: patent publication US20220117938A1, “COMBINATON THERAPY WITH A DON PRODRUG AND AN IMMUNE CHECKPOINT INHIBITOR” (DRACEN PHARMACEUTICALS, INC., priority 2019, published 2022)
